Results taken from patent publication US5122448A, “Assay of anti-Epstein-Barr virus nuclear antigen antibodies with synthetic polypeptides” (Scripps Clinic and Research Foundation, priority 1990, dated 1992).
Like-named read-outs stand apart in the source and are kept apart here. Residues, ends and D or L forms follow the SMILES beside them.

Tests used:
anti-EBNA antibodies = assay: ELISA with polypeptide as solid phase antigen, anti-polypeptide activity of sera (OD405); format: binding, human; settings: for OD405 × 10^3 obtained with Patient Antibodies to peptide: serum 1:20
Description: Briefly, microtiter wells (Costar, #3590, Cambridge, MA) were typically coated with individual polypeptides as antigens by adding 100 microliters (ul) of BBS [10 millimoler (mM) sodium borate (pH 8.3), 150 mM NaCl] containing polypeptide at a concentration of 10 micrograms per milliliter (ug/ml). Contact between the wells and antigen-containing solution was maintained for a predetermined time, typically 15 minutes, and at 20 degrees C., to form an antigen-coated solid phase. The solid and liquid phases were separated and the wells were washed three times with BBS.
Non-specific binding sites were blocked by admixing 200 microliters of 1% bovine serum albumin (BSA) in each well to form another solid/liquid phase admixture, and maintaining that solid/liquid phase admixture for 30 minutes, at 20 degrees C. The phases were separated and excess, unbound BSA was removed by washing three times with BBS.
Rabbit and human sera (body sample aliquots) were assayed for anti-polypeptide activity by adding 100 microliters of a serum diluted 1:20 in BBS per well to form a solid/liquid phase composition. Contact between the diluted sera and the antigen-coated solid phase was maintained for a predetermined time such as 1 hour, and at 20 degrees C., for an immunoreactant to form. The solid and liquid phases were separated, and the solid phase; i.e., antigen-coated, immunoreactant-containing wells, was then washed three times with BBS.
The antibodies in human sera that immunoreacted with an adsored polypeptide were detected using an indicating means comprising alkaline phosphatase-conjugated goat anti-human Ig antibody (Tago, Burlington, Calif.). The antibodies in rabbit sera that immunoreacted with an adsorbed polypeptide were detected using an indicating means comprising alkaline phosphatase-conjugated goat anti-rabbit Ig antibody (Kirkegard & Perry Laboratories, Inc., Gaithersburg, MD). In either instance, 100 microliters of the indicating antibody diluted 1:300 in BBS were added per well to form a further solid/liquid phase composition. This solid-liquid phase composition was maintained for a predetermined time, one hour, for the formation of a reaction product between the human antibodies bound to the solid phase and the indicating means, and at 20 degrees C. The phases were separated, and the solid phase was washed 3 times with BBS.
Alkaline phosphatase-conjugated antibody bound to polypeptide specific antibody was detected by spectrophotometrically measuring the enzymatic hydrolysis of p-nitrophenyl phosphate to p-nitrophenol. Briefly, 100 microliters of p-nitrophenyl phosphate [1 milligram per milliliter in 2 mM MgCl 2, (pH 9.8), 50 mM sodium carbonate] were added to each well. The enzymatic reaction was allowed to proceed 1 hour and then the optical density at 405 nm was determined in a [sequence] spectrophotometer available from Flow Laboratories, Inglewood, Calif.

[1] = Circular dichroism spectroscopy; format: physicochemical; settings: 1 mg/ml in phosphate buffered saline
Description: The conformational properties of the polypeptides were investigated to elucidate any secondary structure that might be necessary for polypeptide immunoreaction with human anti-EBNA antibodies. The polypeptides were dissolved at a concentration of 1 mg/ml in phosphate-buffered saline (PBS). Spectra were taken using 1 ml samples in a Cary 61 spectropolarimeter (Cary Instruments, Applied Physics Corp., Monrovia, Calif.) interfaced and automated with a Digital Equipment Corporation 11/02 computer (Digital Equipment Corporation, Maynard, Mass.).

[2] = system: anti-EBNA antibodies (IgG, IgM, IgA)
Description: Additional assays utilized in these studies wherein IgG to IgM ratios were determined to assess the state of EBV-induced disease were carried out as described in Smith et al., J. Infect. Dis., 154:885-889 (1986) and Geltosky et al., J. Clin Lab Analysis, 1:153-162 (1987).
The solution was thereafter discarded and the plates were blocked with 300 ul of 10 percent normal goat serum in phosphate-buffered saline (PBS) at pH 7.3. After 90 minutes of maintenance (incubation) at 37 degrees C., the wells were emptied and dried for 60 minutes at 37 degrees C.
At this time, 200 ul of 10 percent goat serum in PBS were added to the wells. A volume of 10 ul of patient specimen serum was admixed to each goat serum-containing well to form a solid/liquid phase admixture. That admixture was maintained for a time period of one hour at room temperature to permit binding of any antibodies present to the solid support and form a solid phase-bound immunoreactant containing those antibodies.
After washing five times with 350 ul of 0.05% Tween-20 [polyoxyethylene (20) sorbitan monolaurate] in PBS to effect separation of the solid and liquid phases, a solution of 200 ul of horseradish peroxidase-(HRPO-) conjugated mouse monoclonal antibody to human IgG or IgM (Ortho Diagnostic Systems, Raritan, N.J.) was admixed to each well to form a second solid/liquid phase admixture. This second solid/liquid admixture was maintained for another one hour time period to permit the enzyme-linked antibodies to bind to any solid phase-bound antibodies formed in the first solid/liquid phase admixture.
After separation of the solid and liquid phases, and washing of the solid phase five times using the Tween-20/PBS solution, above, color was developed by admixture of o-phenylenediamine (OPD; 2 mg of a citrate-buffered tablet dissolved in 3 ml of water; Pitman-Moore, Washington Crossing, N.J.) and hydrogen peroxide. The resulting solution was maintained for 30 minutes at room temperature. The reaction was stopped by admixture of 50 ul of 2N HCl, and the absorbance was determined at 490 nanometers (nm).
positive control ratio =reference absorbance value/mean absorbance of positive control.
The positive control was assigned a reference absorbance value (O.D.) of 1.0. […] The absorbance value for the controls and for each test specimen were multiplied by the positive control ratio to achieve a standardized ELISA value. Cutoff values (mean OD+SD) have been previously described [Geltosky et al. J. Clin. Lab. Analysis, 1:153-162 (1987)]. […] Absorbance values less than 0.7 were considered to represent an acute infection due to EBV [Smith et al., J Infect Dis., 154:885-889 (1986)].

[3] = acute IM Patient 1, 1 days post onset
[4] = acute IM Patient 1, 29 days post onset
[5] = acute IM Patient 1, 95 days post onset
[6] = acute IM Patient 1, 184 days post onset
[7] = acute IM Patient 1, 373 days post onset
[8] = acute IM Patient 2, 17 days post onset
[9] = acute IM Patient 2, 28 days post onset
[10] = acute IM Patient 2, 68 days post onset
[11] = acute IM Patient 2, 194 days post onset
[12] = acute IM Patient 2, 404 days post onset
[13] = acute IM Patient 8, 8 days post onset
[14] = acute IM Patient 8, 38 days post onset
[15] = acute IM Patient 8, 109 days post onset
[16] = acute IM Patient 8, 404 days post onset
[17] = acute IM Patient 11, 2 days post onset
[18] = acute IM Patient 11, 23 days post onset
[19] = acute IM Patient 11, 372 days post onset
[20] = acute IM Patient 11, 1,519 days post onset

SMILES: C[C@H](N)C(=O)NCC(=O)N[C@@H](C)C(=O)NCC(=O)NCC(=O)NCC(=O)N[C@@H](C)C(=O)NCC(=O)NCC(=O)N[C@@H](C)C(=O)NCC(=O)N[C@@H](C)C(=O)NCC(=O)NCC(=O)NCC(=O)N[C@@H](C)C(=O)NCC(=O)NCC(=O)N[C@@H](C)C(=O)NCC(=O)O [Polypeptide P62, H--Ala--Gly--Ala--Gly--Gly--Gly--Ala--Gly--Gly--Ala--Gly--Ala--Gly--Gly--Gly--Ala--Gly--Gly--Ala--Gly--OH] (H-AGAGGGAGGAGAGGGAGGAG-OH)
- Reactivity of sera of EBV non-immune donors to polypeptide (anti-EBNA antibodies; 27 EBV non-immune (VCA-) donors): None of the sera displayed significant reactivity
- Number of anti-EBNA positive sera positive against (bound to) polypeptide (anti-EBNA antibodies; 91 ACIF anti-EBNA positive sera, 1:20 dilution): 91
- Number of EBNA positive sera that immunoreacted with polypeptide (anti-EBNA antibodies; 91 EBNA positive sera, dilution 1:320): 83
- Titer of PSS patients versus normals (anti-EBNA antibodies; Progressive Systemic Schlerosis patients): relatively higher average titer
- Reaction of VCA+ sera with polypeptide (anti-EBNA antibodies; clinically normal VCA+ individuals, two dilutions): all of the VCA^+ individuals were positive
- Reaction of VCA- sera with polypeptide (anti-EBNA antibodies; panel of 19 VCA- sera): None of the VCA^- sera were found to react positively
- OD405 × 10^3 obtained with Patient Antibodies to peptide (anti-EBNA antibodies; MV post-mononucleosis): 631 OD405 × 10^3
- OD405 × 10^3 obtained with Patient Antibodies to peptide (anti-EBNA antibodies; MV pre-mononucleosis): 77 OD405 × 10^3
- OD405 × 10^3 obtained with Patient Antibodies to peptide (anti-EBNA antibodies; SB post-mononucleosis): 514 OD405 × 10^3
- OD405 × 10^3 obtained with Patient Antibodies to peptide (anti-EBNA antibodies; SB pre-mononucleosis): 13 OD405 × 10^3
- OD405 × 10^3 obtained with Patient Antibodies to peptide (anti-EBNA antibodies; VCA+ Normal 1): 958 OD405 × 10^3
- OD405 × 10^3 obtained with Patient Antibodies to peptide (anti-EBNA antibodies; VCA+ Normal 2): 819 OD405 × 10^3
- Conformation by circular dichroism spectrum [1]: relatively stable secondary structure
- IgM anti-peptide P62 antibodies during acute phase of CMV disease ([2]; 10 patients with CMV-IM): All 10 patients showed a pronounced increase
- Sera positive for NPC in IgA anti-P62 assay ([2]; 13 sera from NPC patients): 10 of 13
- IgA level ([2]; Heterophil-Positive Sera marked with footnote 2 (samples 2 and 6)): > 0.300 OD 490
- IgG OD 490 [2, 3]: 0.011 OD 490
- IgM OD 490 [2, 3]: 0.189 OD 490
- Ratio IgG/IgM [2, 3]: 0.058
- IgG OD 490 [2, 4]: 0.023 OD 490
- IgM OD 490 [2, 4]: 0.527 OD 490
- Ratio IgG/IgM [2, 4]: 0.043
- IgG OD 490 [2, 5]: 0.162 OD 490
- IgM OD 490 [2, 5]: 0.329 OD 490
- Ratio IgG/IgM [2, 5]: 0.492
- IgG OD 490 [2, 6]: 0.552 OD 490
- IgM OD 490 [2, 6]: 0.245 OD 490
- Ratio IgG/IgM [2, 6]: 2.253
- IgG OD 490 [2, 7]: 0.858 OD 490
- IgM OD 490 [2, 7]: 0.152 OD 490
- Ratio IgG/IgM [2, 7]: 5.644
- IgG OD 490 [2, 8]: 0.125 OD 490
- IgM OD 490 [2, 8]: 0.682 OD 490
- Ratio IgG/IgM [2, 8]: 0.183
- IgG OD 490 [2, 9]: 0.167 OD 490
- IgM OD 490 [2, 9]: 0.674 OD 490
- Ratio IgG/IgM [2, 9]: 0.247
- IgG OD 490 [2, 10]: 0.112 OD 490
- IgM OD 490 [2, 10]: 0.459 OD 490
- Ratio IgG/IgM [2, 10]: 0.244
- IgG OD 490 [2, 11]: 0.233 OD 490
- IgM OD 490 [2, 11]: 0.596 OD 490
- Ratio IgG/IgM [2, 11]: 0.390
- IgG OD 490 [2, 12]: 0.674 OD 490
- IgM OD 490 [2, 12]: 0.665 OD 490
- Ratio IgG/IgM [2, 12]: 1.013
- IgG OD 490 [2, 13]: 0.319 OD 490
- IgM OD 490 [2, 13]: 1.046 OD 490
- Ratio IgG/IgM [2, 13]: 0.305
- IgG OD 490 [2, 14]: 0.165 OD 490
- IgM OD 490 [2, 14]: 0.696 OD 490
- Ratio IgG/IgM [2, 14]: 0.237
- IgG OD 490 [2, 15]: 0.141 OD 490
- IgM OD 490 [2, 15]: 0.603 OD 490
- Ratio IgG/IgM [2, 15]: 0.234
- IgG OD 490 [2, 16]: 1.304 OD 490
- IgM OD 490 [2, 16]: 0.562 OD 490
- Ratio IgG/IgM [2, 16]: 2.320
- IgG OD 490 [2, 17]: 0.005 OD 490
- IgM OD 490 [2, 17]: 0.055 OD 490
- Ratio IgG/IgM [2, 17]: 0.091
- IgG OD 490 [2, 18]: 0.016 OD 490
- IgM OD 490 [2, 18]: 0.702 OD 490
- Ratio IgG/IgM [2, 18]: 0.023
- IgG OD 490 [2, 19]: 0.878 OD 490
- IgM OD 490 [2, 19]: 0.643 OD 490
- Ratio IgG/IgM [2, 19]: 1.365
- IgG OD 490 [2, 20]: 1.079 OD 490
- IgM OD 490 [2, 20]: 0.199 OD 490
- Ratio IgG/IgM [2, 20]: 5.422
- IgG/IgM ratio ([2]; patient five (EBV-IM), May 1985 specimen, late convalescent phase): exceeded 0.7
- IgG/IgM ratio ([2]; patient one (CMV-IM), during the acute illness): 0.661
- IgG/IgM ratio ([2]; patient one (CMV-IM), pre-illness samples): ~2
- Patients scored positive in the EBNA P62 ELISA by the ratio analysis ([2]; ten patients with acute CMV-IM infection): eight of ten
